Measured values: ChEMBL document CHEMBL3621068, “Synthesis and biological evaluation of a new class of quinazolinoneazoles as potential antimicrobial agents and their interactions with calf thymus DNA and human serum albumin” (Medchemcomm, 2015)
In brackets after ≈: the same amount, converted by molar mass.

Legend:
Assay type in all cases: functional
Micrococcus luteus = experiment: Antibacterial activity against Micrococcus luteus ATCC 4698 after 24 hrs by micro broth dilution assay; settings: ATCC 4698, 24 h
Aspergillus flavus = experiment: Antifungal activity against Aspergillus flavus ATCC 204304 after 24 hrs by micro broth dilution assay; settings: ATCC 204304, 24 h
Bacillus spizizenii = experiment: Antibacterial activity against Bacillus subtilis ATCC 6633 after 24 hrs by micro broth dilution assay; settings: ATCC 6633, 24 h
Cyberlindnera jadinii = experiment: Antifungal activity against Candida utilis ATCC 9950 after 24 hrs by micro broth dilution assay; settings: Williopsis jadinii, ATCC 9950, 24 h
Staphylococcus aureus [1] = experiment: Antibacterial activity against methicillin-resistant Staphylococcus aureus N315 after 24 hrs by micro broth dilution assay; settings: N315, 24 h
Pseudomonas aeruginosa = experiment: Antibacterial activity against Pseudomonas aeruginosa ATCC 27853 a after 24 hrs by micro broth dilution assay; settings: ATCC 27853, 24 h
Candida albicans = experiment: Antifungal activity against Candida albicans ATCC 10231 after 24 hrs by micro broth dilution assay; settings: ATCC 10231, 24 h
[2] = Antibacterial activity against Eberthella typhosa ATCC 14028 after 24 hrs by micro broth dilution assay; settings: ATCC 14028, 24 h
Staphylococcus aureus [3] = experiment: Antibacterial activity against Staphylococcus aureus ATCC 25923 after 24 hrs by micro broth dilution assay; settings: ATCC 25923, 24 h
Escherichia coli = experiment: Antibacterial activity against Escherichia coli DH52 after 24 hrs by micro broth dilution assay; settings: DH52, 24 h
Saccharomyces cerevisiae = experiment: Antifungal activity against Beer yeast ATCC 9763 after 24 hrs by micro broth dilution assay; settings: ATCC 9763, 24 h
Candida = experiment: Antifungal activity against Candida mycoderma ATCC 9888 after 24 hrs by micro broth dilution assay; settings: ATCC 9888, 24 h
Bacillus sp. = experiment: Antibacterial activity against Bacillus proteus ATCC 13315 after 24 hrs by micro broth dilution assay; settings: Bacillus sp. (in: firmicutes), ATCC 13315, 24 h

Cc1ncc([N+](=O)[O-])n1CCCCCn1cnc2cc(F)ccc2c1=O
MIC (Micrococcus luteus): 20 µM (≈ 7.19 µg/mL)
MIC (Aspergillus flavus): 20 µM (≈ 7.19 µg/mL)
MIC (Bacillus spizizenii): 20 µM (≈ 7.19 µg/mL)
MIC (Cyberlindnera jadinii): 20 µM (≈ 7.19 µg/mL)
MIC (Staphylococcus aureus [1]): 20 µM (≈ 7.19 µg/mL)
MIC (Pseudomonas aeruginosa): > 1420 µM
MIC (Candida albicans): 40 µM (≈ 14.4 µg/mL)
MIC [2]: 20 µM (≈ 7.19 µg/mL)
MIC (Staphylococcus aureus [3]): 40 µM (≈ 14.4 µg/mL)
MIC (Escherichia coli): 40 µM (≈ 14.4 µg/mL)
MIC (Saccharomyces cerevisiae): 20 µM (≈ 7.19 µg/mL)
MIC (Candida): 40 µM (≈ 14.4 µg/mL)
MIC (Bacillus sp.): 20 µM (≈ 7.19 µg/mL)

OC(Cn1cncn1)(Cn1cncn1)c1ccc(F)cc1F [FLUCONAZOLE]
MIC (Micrococcus luteus): > 1670 µM
MIC (Aspergillus flavus): 840 µM (≈ 257 µg/mL)
MIC (Bacillus spizizenii): > 1670 µM
MIC (Cyberlindnera jadinii): 30 µM (≈ 9.19 µg/mL)
MIC (Staphylococcus aureus [1]): > 1670 µM
MIC (Pseudomonas aeruginosa): > 1670 µM
MIC (Candida albicans): < 10 µM
MIC [2]: > 1670 µM
MIC (Staphylococcus aureus [3]): > 1670 µM
MIC (Escherichia coli): > 1670 µM
MIC (Saccharomyces cerevisiae): 50 µM (≈ 15.3 µg/mL)
MIC (Candida): 10 µM (≈ 3.06 µg/mL)
MIC (Bacillus sp.): > 1670 µM

O=c1c2ccc(F)cc2ncn1CCCCCCBr
MIC (Micrococcus luteus): 390 µM (≈ 128 µg/mL)
MIC (Aspergillus flavus): 1560 µM (≈ 510 µg/mL)
MIC (Bacillus spizizenii): 1560 µM (≈ 510 µg/mL)
MIC (Cyberlindnera jadinii): 390 µM (≈ 128 µg/mL)
MIC (Staphylococcus aureus [1]): 390 µM (≈ 128 µg/mL)
MIC (Pseudomonas aeruginosa): > 1560 µM
MIC (Candida albicans): 780 µM (≈ 255 µg/mL)
MIC [2]: > 1560 µM
MIC (Staphylococcus aureus [3]): > 1560 µM
MIC (Escherichia coli): 780 µM (≈ 255 µg/mL)
MIC (Saccharomyces cerevisiae): 780 µM (≈ 255 µg/mL)
MIC (Candida): > 1560 µM
MIC (Bacillus sp.): 390 µM (≈ 128 µg/mL)

O=c1c2ccc(F)cc2ncn1CCn1ccnc1
MIC (Micrococcus luteus): 500 µM (≈ 129 µg/mL)
MIC (Aspergillus flavus): 500 µM (≈ 129 µg/mL)
MIC (Bacillus spizizenii): > 1980 µM
MIC (Cyberlindnera jadinii): 990 µM (≈ 256 µg/mL)
MIC (Staphylococcus aureus [1]): 990 µM (≈ 256 µg/mL)
MIC (Pseudomonas aeruginosa): 990 µM (≈ 256 µg/mL)
MIC (Candida albicans): 990 µM (≈ 256 µg/mL)
MIC [2]: > 1980 µM
MIC (Staphylococcus aureus [3]): > 1980 µM
MIC (Escherichia coli): 1980 µM (≈ 511 µg/mL)
MIC (Saccharomyces cerevisiae): 500 µM (≈ 129 µg/mL)
MIC (Candida): > 1980 µM
MIC (Bacillus sp.): 1980 µM (≈ 511 µg/mL)

O=c1c2ccc(Cl)cc2ncn1CCCCCn1cnc([N+](=O)[O-])c1
MIC (Micrococcus luteus): 40 µM (≈ 14.5 µg/mL)
MIC (Aspergillus flavus): 710 µM (≈ 257 µg/mL)
MIC (Bacillus spizizenii): 40 µM (≈ 14.5 µg/mL)
MIC (Cyberlindnera jadinii): 350 µM (≈ 127 µg/mL)
MIC (Staphylococcus aureus [1]): 180 µM (≈ 65.1 µg/mL)
MIC (Pseudomonas aeruginosa): 350 µM (≈ 127 µg/mL)
MIC (Candida albicans): 90 µM (≈ 32.6 µg/mL)
MIC [2]: 350 µM (≈ 127 µg/mL)
MIC (Staphylococcus aureus [3]): 180 µM (≈ 65.1 µg/mL)
MIC (Escherichia coli): 350 µM (≈ 127 µg/mL)
MIC (Saccharomyces cerevisiae): 90 µM (≈ 32.6 µg/mL)
MIC (Candida): 180 µM (≈ 65.1 µg/mL)
MIC (Bacillus sp.): 350 µM (≈ 127 µg/mL)

O=c1c2ccc(Cl)cc2ncn1CCCCCCCCCCn1cnc([N+](=O)[O-])c1
MIC (Micrococcus luteus): 40 µM (≈ 17.3 µg/mL)
MIC (Aspergillus flavus): 150 µM (≈ 64.8 µg/mL)
MIC (Bacillus spizizenii): 40 µM (≈ 17.3 µg/mL)
MIC (Cyberlindnera jadinii): 150 µM (≈ 64.8 µg/mL)
MIC (Staphylococcus aureus [1]): 150 µM (≈ 64.8 µg/mL)
MIC (Pseudomonas aeruginosa): 70 µM (≈ 30.2 µg/mL)
MIC (Candida albicans): 40 µM (≈ 17.3 µg/mL)
MIC [2]: 300 µM (≈ 130 µg/mL)
MIC (Staphylococcus aureus [3]): 300 µM (≈ 130 µg/mL)
MIC (Escherichia coli): 150 µM (≈ 64.8 µg/mL)
MIC (Saccharomyces cerevisiae): 70 µM (≈ 30.2 µg/mL)
MIC (Candida): 40 µM (≈ 17.3 µg/mL)
MIC (Bacillus sp.): 70 µM (≈ 30.2 µg/mL)

O=c1c2ccc(F)cc2ncn1CCCCCCCCCCBr
MIC (Micrococcus luteus): 670 µM (≈ 257 µg/mL)
MIC (Aspergillus flavus): 1340 µM (≈ 514 µg/mL)
MIC (Bacillus spizizenii): 1340 µM (≈ 514 µg/mL)
MIC (Cyberlindnera jadinii): 330 µM (≈ 126 µg/mL)
MIC (Staphylococcus aureus [1]): 330 µM (≈ 126 µg/mL)
MIC (Pseudomonas aeruginosa): > 1340 µM
MIC (Candida albicans): 670 µM (≈ 257 µg/mL)
MIC [2]: > 1340 µM
MIC (Staphylococcus aureus [3]): > 1340 µM
MIC (Escherichia coli): 1340 µM (≈ 514 µg/mL)
MIC (Saccharomyces cerevisiae): 670 µM (≈ 257 µg/mL)
MIC (Candida): > 1340 µM
MIC (Bacillus sp.): 330 µM (≈ 126 µg/mL)

Cc1ncc([N+](=O)[O-])n1CCn1cnc2cc(Cl)ccc2c1=O
MIC (Micrococcus luteus): 100 µM (≈ 33.4 µg/mL)
MIC (Aspergillus flavus): 20 µM (≈ 6.67 µg/mL)
MIC (Bacillus spizizenii): 50 µM (≈ 16.7 µg/mL)
MIC (Cyberlindnera jadinii): 50 µM (≈ 16.7 µg/mL)
MIC (Staphylococcus aureus [1]): 50 µM (≈ 16.7 µg/mL)
MIC (Pseudomonas aeruginosa): > 1530 µM
MIC (Candida albicans): 50 µM (≈ 16.7 µg/mL)
MIC [2]: 20 µM (≈ 6.67 µg/mL)
MIC (Staphylococcus aureus [3]): 100 µM (≈ 33.4 µg/mL)
MIC (Escherichia coli): 100 µM (≈ 33.4 µg/mL)
MIC (Saccharomyces cerevisiae): 50 µM (≈ 16.7 µg/mL)
MIC (Candida): 50 µM (≈ 16.7 µg/mL)
MIC (Bacillus sp.): 50 µM (≈ 16.7 µg/mL)

Cc1ncc([N+](=O)[O-])n1CCCCn1cnc2cc(F)ccc2c1=O
MIC (Micrococcus luteus): 50 µM (≈ 17.3 µg/mL)
MIC (Aspergillus flavus): 20 µM (≈ 6.91 µg/mL)
MIC (Bacillus spizizenii): 50 µM (≈ 17.3 µg/mL)
MIC (Cyberlindnera jadinii): 50 µM (≈ 17.3 µg/mL)
MIC (Staphylococcus aureus [1]): 20 µM (≈ 6.91 µg/mL)
MIC (Pseudomonas aeruginosa): > 1480 µM
MIC (Candida albicans): 20 µM (≈ 6.91 µg/mL)
MIC [2]: 20 µM (≈ 6.91 µg/mL)
MIC (Staphylococcus aureus [3]): 50 µM (≈ 17.3 µg/mL)
MIC (Escherichia coli): 50 µM (≈ 17.3 µg/mL)
MIC (Saccharomyces cerevisiae): 50 µM (≈ 17.3 µg/mL)
MIC (Candida): 50 µM (≈ 17.3 µg/mL)
MIC (Bacillus sp.): 20 µM (≈ 6.91 µg/mL)

O=c1c2ccc(Cl)cc2ncn1CCCCCCBr
MIC (Micrococcus luteus): 370 µM (≈ 127 µg/mL)
MIC (Aspergillus flavus): > 1490 µM
MIC (Bacillus spizizenii): 1490 µM (≈ 512 µg/mL)
MIC (Cyberlindnera jadinii): 740 µM (≈ 254 µg/mL)
MIC (Staphylococcus aureus [1]): 740 µM (≈ 254 µg/mL)
MIC (Pseudomonas aeruginosa): > 1490 µM
MIC (Candida albicans): > 1490 µM
MIC [2]: > 1490 µM
MIC (Staphylococcus aureus [3]): > 1490 µM
MIC (Escherichia coli): 1490 µM (≈ 512 µg/mL)
MIC (Saccharomyces cerevisiae): 740 µM (≈ 254 µg/mL)
MIC (Candida): > 1490 µM
MIC (Bacillus sp.): 740 µM (≈ 254 µg/mL)

O=c1c2ccc(Cl)cc2ncn1CCCCCCn1cnc([N+](=O)[O-])c1
MIC (Micrococcus luteus): 40 µM (≈ 15 µg/mL)
MIC (Aspergillus flavus): 170 µM (≈ 63.9 µg/mL)
MIC (Bacillus spizizenii): 40 µM (≈ 15 µg/mL)
MIC (Cyberlindnera jadinii): 340 µM (≈ 128 µg/mL)
MIC (Staphylococcus aureus [1]): 170 µM (≈ 63.9 µg/mL)
MIC (Pseudomonas aeruginosa): 340 µM (≈ 128 µg/mL)
MIC (Candida albicans): 40 µM (≈ 15 µg/mL)
MIC [2]: 340 µM (≈ 128 µg/mL)
MIC (Staphylococcus aureus [3]): 340 µM (≈ 128 µg/mL)
MIC (Escherichia coli): 170 µM (≈ 63.9 µg/mL)
MIC (Saccharomyces cerevisiae): 90 µM (≈ 33.8 µg/mL)
MIC (Candida): 40 µM (≈ 15 µg/mL)
MIC (Bacillus sp.): 90 µM (≈ 33.8 µg/mL)

O=c1c2ccc(Cl)cc2ncn1CCCCn1cnc([N+](=O)[O-])c1
MIC (Micrococcus luteus): 50 µM (≈ 17.4 µg/mL)
MIC (Aspergillus flavus): 740 µM (≈ 257 µg/mL)
MIC (Bacillus spizizenii): 50 µM (≈ 17.4 µg/mL)
MIC (Cyberlindnera jadinii): 370 µM (≈ 129 µg/mL)
MIC (Staphylococcus aureus [1]): 180 µM (≈ 62.6 µg/mL)
MIC (Pseudomonas aeruginosa): 740 µM (≈ 257 µg/mL)
MIC (Candida albicans): 90 µM (≈ 31.3 µg/mL)
MIC [2]: 370 µM (≈ 129 µg/mL)
MIC (Staphylococcus aureus [3]): 370 µM (≈ 129 µg/mL)
MIC (Escherichia coli): 740 µM (≈ 257 µg/mL)
MIC (Saccharomyces cerevisiae): 90 µM (≈ 31.3 µg/mL)
MIC (Candida): 740 µM (≈ 257 µg/mL)
MIC (Bacillus sp.): 370 µM (≈ 129 µg/mL)
